Measured values reported in patent US20230406803A1, “TROPOLONE DERIVATIVES AND TAUTOMERS THEREOF FOR IRON REGULATION IN ANIMALS” (Kinesid Therapeutics, Inc, priority 2020, published 2023).

Experiment: Ligand facilitated Fe(III) efflux from liposomes
Format: biochemical
Design: unit not given here
Conditions: efflux rate k at 10 μM ligand concentration; ferrozine absorbance 562 nm, 120 min kinetic read
Description: Assay 1: Ligand Facilitated Fe(III) Efflux from Liposomes
Preparation of POPC (1 palmitoyl-2-oleoyl-sn-glycero-3 phosphocholine): Cholesterol Liposomes
A 1M buffer solution of MES and Tris was prepared by dissolving 121.14 grams of Tris base and 213.25 grams of MES hydrate in 500 mL of MilliQ water and adjusted to pH7.0 using an […] HCl solution before bringing the total volume of the solution to 1 L. A 500 mM solution of FeCl3 was prepared by dissolving 0.811 grams of anhydrous FeCl3 in 10 mL of a 0.1M H2SO4 aqueous solution. Inside buffer is prepared in a 50 mL falcon tube, which was added with 25 mL of MilliQ water, 1.61 g of sodium citrate, 1.5 mL of the above FeCl3 solution, and 2.5 mL of the 1M MES/Tris HCl buffer (pH=7.0), and finally additional MilliQ H2O to bring to a 50 mL final volume.
Lipid solution is prepared by dissolving 206.9 mg of POPC (1-palmitoyl-2-oleoyl-sn-glycero-3-phosphocholine) and 8.6 mg of cholesterol in 10 mL of ethanol.
The lipids solution and the inside buffer solution are independently loaded into 10 mL luer lock syringes for loading into a virgin cartridge on a Precision Nanosystems NanoAssembler to prepare unilamaller liposomes with the following parameters: 7.5 mL total volume, 1.5:1 mixing ratio of inside buffer:lipids solution, 8 mL/min flow rate, ambient temperature, 0.35 mL start waste, and 0.05 mL of end waste. 7.5 mL of liposomes is harvested for purification on a 6-inch long, 1-inch diameter Sephadex G-50 column wetted in 600 mM sodium ascorbate and 50 mM MES/Tris HCl pH 7.0 buffer. This buffer also serves as the column running buffer. The crude liposome solution is carefully loaded with minimal volume of running buffer above the top of the Sphadex, allowed to enter the matrix, and the column is run with the continued addition of running buffer. The eluting liposomes, observed as a milky and turbid solution, are collected until free iron begins to elute (observed as a deep purple color) and the fractions are pooled for phosphorus quantitation.
Determination of Phosphorus Content:
Phosphorus content of eluted liposomes was determined by the process outlined below. 10 μL of liposome elution and a running buffer blank are added to a 5 mL glass vial containing 450 μL of a 8.9 M aqueous H2SO4 solution, the mixture is heated to 225° C. for 25 minutes in an aluminum heat block to hydrolyze POPC and cooled for 5 minutes. 200 μL of a 30% hydrogen peroxide aqueous solution is added to each vial and heated to 225° C. for 25 minutes. After cooling, the phosphorus content was determined using an Abcam Phosphate Assay kit, with buffer subtracted phosphorus levels determined against a standard curve of phosphate included in the kit. Liposomes were diluted to 1 mM phosphate in Running Buffer for use in assays after accounting for dilutions made during phospholipid digestion.
Determination of the Iron Transporting Rate Constant of the Ligands:
Determination of the rate at which a small molecule ligand liberates (transport) Ferric iron from liposomes is performed in clear bottom black 384-well plates on a Spectramax i3x set to read the absorbance at 562 nm in the kinetic mode every 60 seconds for 120 minutes. 1 μL of serially diluted DMSO stock solution of a small molecule ligand is added to wells in triplicate to give the final concentrations of 40, 20, 10, 5, 2.5, and 1.25 uM of the ligand at 80 μL final volume, followed by addition of 1 μL of 100 mM Ferrozine in water to give a final concentration of 1 mM ferrozine. 78 μL of liposomes diluted to 1 mM phosphorus in running buffer is added to wells as quickly as possible (using a digital repeater multichannel pipette) with the kinetic read initiated as rapidly as possible after addition of liposomes to all wells. Typically, eight compounds at six concentrations are tested in triplicate simultaneously. […]
For `O=c1cccc2c(c1O)OCCC2`, the “Liposome Fe transport kefflux at 10 μM” value was 5-7.5.
With `O=c1c(F)cccc(C2CCCCO2)c1O` (stereo not drawn) the “Liposome Fe transport kefflux at 10 μM” value was 5-7.5.
In the case of `O=c1c(F)cccc(OC2CCC2)c1O`, the “Liposome Fe transport kefflux at 10 μM” value is reported as 10-25.
With `Cc1cccc(C2CCCCO2)c(O)c1=O` (stereo not drawn) the “Liposome Fe transport kefflux at 10 μM” value was “<.1”.
In the case of `COc1ccc(O)c(=O)cc1`, the “Liposome Fe transport kefflux at 10 μM” value is reported as 5-7.5.
In the case of `Cc1cccc(C2CCCO2)c(O)c1=O` (stereo not drawn), the “Liposome Fe transport kefflux at 10 μM” value is reported as 10-25.
For `O=c1ccccc(CC2COC2)c1O`, the “Liposome Fe transport kefflux at 10 μM” value was <0.1.
In the case of `O=c1ccc(F)cc(OC2CCC2)c1O`, the “Liposome Fe transport kefflux at 10 μM” value is reported as 0.1-5.
For `O=c1c(O)ccc(OC2CCCC2)cc1F`, the “Liposome Fe transport kefflux at 10 μM” value was 5-7.5.
For `O=c1c(F)cccc(OC2CC2)c1O`, the “Liposome Fe transport kefflux at 10 μM” value was 0.1-5.
With `CC(C)c1cc(F)ccc(=O)c1O` the “Liposome Fe transport kefflux at 10 μM” value was 0.1-5.
In the case of `O=c1ccc(F)cc(C2CCCO2)c1O` (stereo not drawn), the “Liposome Fe transport kefflux at 10 μM” value is reported as 5-7.5.
In the case of `O=c1ccc(F)cc(C2CCCCO2)c1O` (stereo not drawn), the “Liposome Fe transport kefflux at 10 μM” value is reported as 0.1-5.
In the case of `CC1(c2ccc(O)c(=O)cc2)CC1`, the “Liposome Fe transport kefflux at 10 μM” value is reported as 0.1-5.
For `CC(C)c1cccc(=O)c(S)c1`, the “Liposome Fe transport kefflux at 10 μM” value was 0.1-5.
With `CC(C)c1cccc(S)c(=O)c1` the “Liposome Fe transport kefflux at 10 μM” value was 0.1-5.
In the case of `CC(C)c1ccc(F)cc(O)c1=O`, the “Liposome Fe transport kefflux at 10 μM” value is reported as 0.1-5.
In the case of `CC1CCC(c2ccccc(=O)c2O)O1` (racemic), the “Liposome Fe transport kefflux at 10 μM” value is reported as 5-7.5.
In the case of `O=c1cccc(F)cc1O`, the “Liposome Fe transport kefflux at 10 μM” value is reported as 0.1-5.
In the case of `C[C@@H]1CCC(c2ccccc(=O)c2O)O1` (mixture of isomers), the “Liposome Fe transport kefflux at 10 μM” value is reported as 5-7.5.
In the case of `CC1(C)CCC(c2ccc(O)c(=O)cc2)C1` (stereo not drawn), the “Liposome Fe transport kefflux at 10 μM” value is reported as 0.1-5.
In the case of `C[C@@H](Oc1ccccc(=O)c1O)C1CC1` (stereo in doubt), the “Liposome Fe transport kefflux at 10 μM” value is reported as 5-7.5.
For `O=c1cccc(OC2CC3(CC3)C2)cc1O`, the “Liposome Fe transport kefflux at 10 μM” value was 5-7.5.
In the case of `CC1(c2ccc(O)c(=O)c(F)c2)CC1`, the “Liposome Fe transport kefflux at 10 μM” value is reported as 5-7.5.
For `O=c1c(O)ccc(C2CC2)cc1F`, the “Liposome Fe transport kefflux at 10 μM” value was 10-25.
For `Cc1coc2c(O)c(=O)cccc12`, the “Liposome Fe transport kefflux at 10 μM” value was 7.5-10.
For `O=c1c(F)cccc(OC2CCCC2)c1O`, the “Liposome Fe transport kefflux at 10 μM” value was 7.5-10.
For `Cc1cc(Cl)ccc(=O)c1O`, the “Liposome Fe transport kefflux at 10 μM” value was 5-7.5.
With `C[C@H](Oc1ccccc(=O)c1O)C1CC1` (stereo in doubt) the “Liposome Fe transport kefflux at 10 μM” value was 5-7.5.
In the case of `O=c1ccc(OC2CCCC2)ccc1O`, the “Liposome Fe transport kefflux at 10 μM” value is reported as 5-7.5.
With `O=c1c(F)cccc(C2CC2)c1O` the “Liposome Fe transport kefflux at 10 μM” value was 7.5-10.
In the case of `O=c1ccccc(C2CC3CC3C2)c1[O-].[Na+]` (stereo not drawn), the “Liposome Fe transport kefflux at 10 μM” value is reported as 0.1-5.
With `O=c1ccc(F)cc(C2CCOCC2)c1O` the “Liposome Fe transport kefflux at 10 μM” value was 7.5-10.
With `O=c1c(F)cccc(OC2CC3(CC3)C2)c1O` the “Liposome Fe transport kefflux at 10 μM” value was 0.1-5.
For `COC1CCCC1c1ccccc(=O)c1O` (stereo not drawn), the “Liposome Fe transport kefflux at 10 μM” value was 5-7.5.
With `O=c1ccc(C(CO)Cc2ccccc2)ccc1O` (stereo not drawn) the “Liposome Fe transport kefflux at 10 μM” value was 0.1-5.
With `O=c1ccccc(OC2CCCC2)c1O` the “Liposome Fe transport kefflux at 10 μM” value was 7.5-10.
With `O=c1cccc(C2CC3CC3C2)cc1O` (stereo not drawn) the “Liposome Fe transport kefflux at 10 μM” value was 0.1-5.
For `O=c1ccc(OC2CC3(CC3)C2)ccc1O`, the “Liposome Fe transport kefflux at 10 μM” value was 0.1-5.
With `CCc1ccc(F)c(=O)c(O)c1` the “Liposome Fe transport kefflux at 10 μM” value was 0.1-5.
With `O=c1cccc(OC2CCC2)cc1O` the “Liposome Fe transport kefflux at 10 μM” value was 0.1-5.
With `O=c1ccc(F)ccc1O` the “Liposome Fe transport kefflux at 10 μM” value was 7.5-10.
With `Cc1cc(F)ccc(=O)c1O` the “Liposome Fe transport kefflux at 10 μM” value was 5-7.5.
In the case of `O=c1ccccc(OCC2CCC2)c1O`, the “Liposome Fe transport kefflux at 10 μM” value is reported as 5-7.5.
For `O=c1cccc(O[C@H]2CCOC2)cc1O` (stereo in doubt), the “Liposome Fe transport kefflux at 10 μM” value was 5-7.5.
For `O=c1cccc(C2CCC3(CC2)CC3)cc1O`, the “Liposome Fe transport kefflux at 10 μM” value was 0.1-5.

Experiment: Mouse 6-hour PK study
Conditions: mouse, in vivo
From the text: Useful such assays include, but are not limited to e.g., those measurements made in PK studies, such as rodent and non-human primate PK studies, including e.g., mouse (such as mouse 6-hour PK studies), rat PK studies, cynomolgus or rhesus PK studies, or the like. Useful measurements obtained in such PK studies include but are not limited to e.g., maximum concentration (Cmax) reflecting the “peak” of a drug observed after its administration that can reflect not only the rate but also the extent of absorption, area under the curve (AUC) representing the area under the plot of tissue (e.g., plasma) concentration against time after drug administration which is of particular use in estimating bioavailability of drugs and drug total clearance, half-life (t1/2) or the period of time required for the concentration or amount of drug to be reduced to exactly one-half of a given concentration or amount that indicates the persistence of the drug in its volume of distribution, and the like.
Such assessments included human and mouse liver microsomal stability assays as well as 6-hour mouse PK studies.
With `O=c1c(O)cc(C2CC2)ccc1F` [Ex. 34, 4-cyclopropyl-7-fluoro-2-hydroxycyclohepta-2,4,6-trien-1-one] the AUC(0-t) was > 20000 ng·h/mL, the Cmax was 5000 to 20000 ng/mL and the half-life was 75 to 299 min. For the same compound, the “mouse 6-hour PK properties as compared to hinokitiol” value was “one or more improved mouse 6-hour PK properties as compared to hinokitiol”.
In the case of `Cc1cccc(C(C)C)c(O)c1=O` [Ex. 30, 2-hydroxy-3-isopropyl-7-methylcyclohepta-2,4,6-trien-1-one], the AUC(0-t) is reported as < 499 ng·h/mL, the Cmax is reported as < 499 ng/mL and the half-life is reported as 300 to 599 min. The “mouse 6-hour PK properties as compared to hinokitiol” value was “one or more improved mouse 6-hour PK properties as compared to hinokitiol”.
In the case of `O=c1ccccc(OCC2CC2)c1O` [Ex. 83, 3-(cyclopropylmethoxy)-2-hydroxycyclohepta-2,4,6-trien-1-one], the AUC(0-t) is reported as 500 to 1500 ng·h/mL, the Cmax is reported as 1500 to 5000 ng/mL and the half-life is reported as < 75 min. For the same compound, the “mouse 6-hour PK properties as compared to hinokitiol” value was “one or more improved mouse 6-hour PK properties as compared to hinokitiol”.
Compound `O=c1cccc(C2CC3CCC(C2)O3)cc1O` (stereo not drawn) [Ex. 6, 4-(8-oxabicyclo[3.2.1]octan-3-yl)-2-hydroxycyclohepta-2,4,6-trien-1-one] has an AUC(0-t) of 500 to 1500 ng·h/mL, a Cmax of 500 to 1500 ng/mL and a half-life of 75 to 299 min. For the same compound, the “mouse 6-hour PK properties as compared to hinokitiol” value was “one or more improved mouse 6-hour PK properties as compared to hinokitiol”.
In the case of `O=c1ccccc(C2CCOCC2)c1O` [Ex. 8, 2-hydroxy-3-(tetrahydro-211-pyran-4-yl)cyclohepta-2,4,6-trien-1-one], the AUC(0-t) is reported as 500 to 1500 ng·h/mL, the Cmax is reported as 500 to 1500 ng/mL and the half-life is reported as 75 to 299 min. For the same compound, the “mouse 6-hour PK properties as compared to hinokitiol” value was “one or more improved mouse 6-hour PK properties as compared to hinokitiol”.
With `O=c1ccccc(OC2CC3(CC3)C2)c1O` [Ex. 82, 2-hydroxy-3-(spiro[2.3]hexan-5-yloxy)cyclohepta-2,4,6-trien-1-one] the AUC(0-t) was 500 to 1500 ng·h/mL, the Cmax was < 499 ng/mL and the half-life was < 75 min. The “mouse 6-hour PK properties as compared to hinokitiol” value was “one or more improved mouse 6-hour PK properties as compared to hinokitiol”.
With `CCc1cccc(C)c(=O)c1O` [Ex. 27, 7-ethyl-2-hydroxy-3-methylcyclohepta-2,4,6-trien-1-one] the AUC(0-t) was 500 to 1500 ng·h/mL, the Cmax was 500 to 1500 ng/mL and the half-life was 75 to 299 min. For the same compound, the “mouse 6-hour PK properties as compared to hinokitiol” value was “one or more improved mouse 6-hour PK properties as compared to hinokitiol”.
For `Cc1cc(C(C)C)ccc(O)c1=O` [Ex. 28, 7-hydroxy-4-isopropyl-2-methylcyclohepta-2,4,6-trien-1-one], the AUC(0-t) was < 499 ng·h/mL, the Cmax was < 499 ng/mL and the half-life was 75 to 299 min. The “mouse 6-hour PK properties as compared to hinokitiol” value was “one or more improved mouse 6-hour PK properties as compared to hinokitiol”.
